According to patent US20120116027A1, “PROCESS FOR THE PURIFICATION OF HUMAN GROWTH HORMONE POLYPEPTIDES USING AFFINITY RESINS COMPRISING SPECIFIC LIGANDS” (priority 2008, published 2012):
Where a SMILES comes first, the peptide text is derived from it. [ ]: non-standard residue; d: D form. The star is where a group is joined. X1 = O=C(c1ccc2ccccc2c1O)*; Dap = NC[CH](N)C(=O)O; Aib = CC(C)(N)C(=O)O

Legend:
wild type hGH = wild type hGH (Homo sapiens, UniProt P01241); experiment: Binding capacity for wild type hGH of ligands synthesized on Fractogel Amino (1 mL columns); conditions: ligand on Fractogel Amino; for Measured binding capacity (mg hGH/mL resin): load 5 mg/mL hGH in 25 mM Tris-HCl pH 7.50, 0.5 mL/min, elution gradient 1M NaCl/25 mM Tris pH 7.5
Sequence of wild type hGH (P01241 27-217): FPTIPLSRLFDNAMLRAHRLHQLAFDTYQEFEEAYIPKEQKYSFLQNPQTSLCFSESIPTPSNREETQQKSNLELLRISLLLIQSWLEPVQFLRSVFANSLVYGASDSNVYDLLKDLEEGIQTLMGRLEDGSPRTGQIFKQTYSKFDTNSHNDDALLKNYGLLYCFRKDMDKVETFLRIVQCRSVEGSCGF
Method: (§1) were stepwise synthesized on Fractogel Amino (Merck) with amine loading 0.16 mmol/g and particle size 40-90 μm. The resins were washed thoroughly with DMF, DCM, and ethanol and packed in 1 mL columns and washed with 0.2 M NaOH and then with 20% ethanol, and equilibrated with 25 mM Tris-HCl at pH=7.50 (buffer A).
Binding capacity for wild type hGH was measured for each resin sample by • a) loading the column with a 5 mg/mL solution of hGH in buffer A at a flow rate of 0.5 mL/min, • b) washing the column with at least 10 column volumes of buffer A until a steady low UV absorbance of the buffer leaving the column was observed, • c) eluting the protein by applying a gradient of 1M NaCl/25 mM Tris at pH=7.5 (buffer B) • d) cleaning the column with 0.2 M NaOH, then with buffer B, and then with buffer A.
The binding capacity was calculated by integrating the UV signal during step (c) and indicated for each ligand above.

hGH [1] = target: T1, hGH (Homo sapiens, UniProt P01241); experiment: Resin selectivity test with hGH fermentation broth, judged by SDS page gels of the eluate; conditions: ligand on Fractogel Amino, hGH fermentation broth diluted five times with buffer A
T1 construct: made in house; host or cells: E. coli
T1 sequence (P01241 27-217): as above
Method: as §1
Resin selectivity was tested by • (a) loading the column with hGH fermentation broth diluted five times with buffer A • (b) washing the column with at least 10 column volumes of buffer A until a steady low UV absorbance of the buffer leaving the column was observed, • (c) eluting the protein by applying a gradient of buffer B • (d) cleaning the column with 0.2 M NaOH, then with buffer B, and then with buffer A.
“Observed selectivity” was judged by SDS page gels of the eluate […] and indicated for each ligand above. An example of a resin with “very good” selectivity (ligand L11 on Fractogel) and an example of a resin with “moderate” selectivity (ligand L6 on Fractogel) are given in FIG. 3.

hGH [2] = experiment: Dynamic 10% BT capacity of ligand L10 on Fractogel Amino M; type: binding, human; conditions: load 50 mM BisTris-HCl pH 6.50, 0.5 mL/min (150 cm/h), 15° C.
Method: (§2) Ligand L10 from Example 1 was synthesized step-wise on Fractogel Amino M (Supplied by Merck KgaA), and the resulting affinity resin was packed in Tricorn 5/50, 1 mL (GE Healthcare).
(§3) hGH standard: hGH was dissolved to 20 mg/mL in freshly made 50 mM NH41-1CO3, then diluted to 2 or 3.3 mg/mL with Buffer A (50 mM Tris-HCl, pH=7.50, T=15° C. (20° C. in Äkta)).
(§4) hGH micro-filtrate buffer: 2.61 mg/mL hGH E. coli micro-filtrate from hGH harvest. A frozen 15 mL sample was thawed at room temperature and filtered using a syringe-driven filter ([…]). Diluted to 0.52 mg hGH/mL with Buffer A.
(§5) Buffer A1: 50 mM BisTris-HCl, pH=6.50, T=15° C. (20° C. in Äkta), flow 0.5 mL/min (150 cm/h)
(§6) Buffer Z1: 25 mM Tris-HCl, 1M NaCl, pH=7.50, T=15° C. (20° C. in Äkta), flow 0.5 mL/min (150 cm/h)

hGH [3] = target: T1, hGH; experiment: as above; type: binding; conditions: load 50 mM BisTris-HCl pH 6.50, 0.5 mL/min (150 cm/h), 15° C.
Method: as §2, §3, §4, §5, §6

hGH [4] = target: T1, hGH; experiment: Affinity purification of hGH from E. coli micro-filtrate with ligand L10 resin (purity and recovery); conditions: load 50 mM BisTris-HCl pH 6.25
Method: as §2, §4
An elution buffer of 200 mM Tris-HCl, pH 8.00, 1 M NaCl, 30% propylene glycol results in high recovery of hGH. This elution buffer and the aforementioned 50 mM BisTris-HCl, pH 6.5 load buffer was used. The column was overloaded with hGH. The results from an experiment using these conditions are shown below:
The loading buffer was changed to 50 mM BisTris-HCl at pH 6.25 and different elution buffers at pH 7.25, 7.50 and 8.00 were tested.
Chromatograms and gels are shown in FIG. 8 for the run with the following conditions: Load buffer: 50 mM BisTris at pH 6.25 and Elution buffer: 50 mM BisTris at pH 8.00

hGH [5] = target: T1, hGH; experiment: Evaluation of ligand synthesized directly on Fractogel in 5 mL scale (capacity, recovery, purity); type: binding; conditions: load 50 mM BisTris pH 6.25, elution 50 mM BisTris pH 8.00 gradient; for Dynamic 10% BT capacity for micro-filtrate hGH / Dynamic 10% BT capacity for pure hGH: 2 mL/min
Method: Ligand L14 from Example 1 was synthesized directly on Fractogel. The resin was evaluated in 5 mL scale.
Load buffer: 50 mM BisTris at pH 6.25
Elution buffer: 50 mM BisTris at pH 8.00 gradient
Temperature: 15° C. (20° measured by Äkta)
Ligand L16 from Example 1 was synthesized directly on Fractogel Amino. This resin was evaluated in 5 mL scale.

SMILES	Observed selectivity (hGH [1])	Measured binding capacity (mg hGH/mL resin) (wild type hGH)	also measured
CC(C)(NC(=O)C(CNC(=O)c1ccc2ccccc2c1O)NC(=O)C(Cc1ccc(O)cc1)NC(=O)C(N)CCCNC(=N)N)C(=O)O (stereo not shown) [L19] (H-RY[Dap](X1)[Aib]-OH; configuration not given here)	–	–	binding capacity (wild type hGH; same procedures as Example 1): < 0.5 mg/mL
N[C@@H](Cc1ccc(O)cc1)C(=O)N[C@@H](Cc1ccccc1)C(=O)N[C@@H](CNC(=O)C1c2ccccc2Oc2ccccc21)C(=O)O [L3]	Moderate	5 mg hGH/mL resin	–
N[C@@H](Cc1ccccc1)C(=O)N[C@@H](Cc1ccccc1)C(=O)N[C@@H](CNC(=O)C1c2ccccc2Oc2ccccc21)C(=O)O [L4]	Good	1 mg hGH/mL resin	–
CC[C@H](C)[C@H](N)C(=O)N[C@@H](Cc1ccccc1)C(=O)N[C@@H](CNC(=O)c1c2c(nc3ccccc13)CCCC2)C(=O)O [L10]	Very good	3 mg hGH/mL resin	dynamic 10% BT capacity for hGH micro-filtrate (hGH [2]): 3.22 mg/mL; Dynamic 10% BT capacity (purified hGH) (hGH [3]): 6.7 mg/mL; Purity of eluate (hGH [4]; Elution pH 7.25): 91%; Purity of eluate (hGH [4]; Elution pH 7.50): 85%; Purity of eluate (hGH [4]; Elution pH 8.00): 85%
N=C(N)NCCC[C@H](N)C(=O)N[C@@H](Cc1ccc(O)cc1)C(=O)N[C@@H](CNC(=O)C1c2ccccc2Oc2ccccc21)C(=O)O [L1]	Moderate	14 mg hGH/mL resin	–
O=C(NC[C@H](NC(=O)[C@H]1CCCN1C(=O)[C@H]1CCCN1)C(=O)O)c1c2c(nc3ccccc13)CCCC2 [L12]	Good	2 mg hGH/mL resin	–
N[C@@H](Cc1ccccc1)C(=O)N[C@@H](Cc1ccccc1)C(=O)N[C@@H](CNC(=O)c1c2c(nc3ccccc13)CCCC2)C(=O)O [L11]	Very good	2 mg hGH/mL resin	–
CC[C@@H](C)[C@H](N)C(=O)N[C@@H](CCCCN)C(=O)N[C@@H](CNC(=O)c1c(C)nc2ccccn12)C(=O)O [L16]	Moderate	>10 mg hGH/mL resin	Purity (hGH [5]): 70%; Dynamic 10% BT capacity for micro-filtrate hGH (hGH [5]): 5.7 mg/mL; Dynamic 10% BT capacity for pure hGH (hGH [5]): 11.9 mg/mL
Cc1ccc([N+](=O)[O-])c(C(=O)NCC(NC(=O)C(Cc2c[nH]cn2)NC(=O)C(N)CC(=O)O)C(=O)O)c1 (stereo not shown) [L18]	–	<0.5 mg hGH/mL resin	–
Cc1nn(-c2ccccc2)nc1C(=O)NC[C@H](NC(=O)[C@H](Cc1ccccc1)NC(=O)[C@@H](N)Cc1c[nH]c2ccccc12)C(=O)O [L5]	Good	2 mg hGH/mL resin	–
Cc1nc2ccccn2c1C(=O)NC[C@H](NC(=O)[C@H](CCCNC(=N)N)NC(=O)[C@@H](N)Cc1ccccc1)C(=O)O [L15]	Good	>5 mg hGH/mL resin	–
N=C(N)NCCC[C@H](NC(=O)[C@@H](N)Cc1ccccc1)C(=O)N[C@@H](CNC(=O)C1c2ccccc2Oc2ccccc21)C(=O)O [L2]	Good	7 mg hGH/mL resin	–
CC(O)C(N)C(=O)NC(CC(=O)O)C(=O)NC(CNC(=O)c1ccc2nccnc2c1)C(=O)O (stereo not shown) [L17]	–	<0.5 mg hGH/mL resin	–
NCCCC[C@H](N)C(=O)N[C@@H](Cc1ccccc1)C(=O)N[C@@H](CNC(=O)c1c2c(nc3ccccc13)CCCC2)C(=O)O [L14]	Good	>5 mg hGH/mL resin	Purity (hGH [5]): 71%; Dynamic 10% BT capacity for micro-filtrate hGH (hGH [5]): 6.7 mg/mL; Dynamic 10% BT capacity for pure hGH (hGH [5]): 16.3 mg/mL
CC[C@@H](C)[C@H](NC(=O)[C@@H](N)Cc1c[nH]c2ccccc12)C(=O)N[C@@H](CNC(=O)c1scc(S(=O)(=O)c2ccccc2)c1N)C(=O)O [L7]	Good	2 mg hGH/mL resin	–
NCCCC[C@H](NC(=O)[C@@H](N)Cc1ccccc1)C(=O)N[C@@H](CNC(=O)c1scc(S(=O)(=O)c2ccccc2)c1N)C(=O)O [L6]	Moderate	13 mg hGH/mL resin	–
N=C(N)NCCC[C@H](N)C(=O)N[C@@H](Cc1ccccc1)C(=O)N[C@@H](CNC(=O)C1CC(=O)c2ccccc21)C(=O)O (stereo partly shown) [L9]	Good	10 mg hGH/mL resin	–
C[C@@H](O)[C@H](NC(=O)[C@@H](N)CCCNC(=N)N)C(=O)N[C@@H](CNC(=O)c1c2c(nc3ccccc13)CCCC2)C(=O)O [L13]	Moderate	>10 mg hGH/mL resin	–
CC[C@H](C)[C@H](N)C(=O)N[C@@H](Cc1ccc(O)cc1)C(=O)N[C@@H](CNC(=O)c1scc(S(=O)(=O)c2ccccc2)c1N)C(=O)O [L8]	Moderate	6 mg hGH/mL resin	–
